In patent US20230092890A1, “1, 3, 4-Oxadiazole derivative compounds as histone deacetylase 6 inhibitor, and the pharmaceutical composition comprising the same” (Chong Kun Dang Pharmaceutical Corp., priority 2019, published 2023):
Like-named read-outs stand apart in the source and are kept apart here.

What was measured:
HDAC1 = biological target: T1, HDAC1 (Homo sapiens, UniProt Q13547); experiment: HDAC enzyme activity inhibition (in vitro), HDAC1 Fluorimetric Drug Discovery Assay Kit; assay type: biochemical
T1 construct: purchased Enzolifesciences BML-AK511
Method in brief: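 Each sample reacted with enzyme for 60 min at 37° C before a 30-min developer step at the same temperature. HDAC1 doses spanned 100 to 10000 nM. Fluorescent signal was read at Ex 390/Em 460.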

HDAC6 human recombinant = biological target: T2, HDAC6 human recombinant (Homo sapiens, UniProt Q9UBN7); experiment: HDAC enzyme activity inhibition (in vitro), HDAC6 assay; assay type: biochemical
T2 construct: purchased Calbiochem 382180
T2 sequence (Q9UBN7 1-1215): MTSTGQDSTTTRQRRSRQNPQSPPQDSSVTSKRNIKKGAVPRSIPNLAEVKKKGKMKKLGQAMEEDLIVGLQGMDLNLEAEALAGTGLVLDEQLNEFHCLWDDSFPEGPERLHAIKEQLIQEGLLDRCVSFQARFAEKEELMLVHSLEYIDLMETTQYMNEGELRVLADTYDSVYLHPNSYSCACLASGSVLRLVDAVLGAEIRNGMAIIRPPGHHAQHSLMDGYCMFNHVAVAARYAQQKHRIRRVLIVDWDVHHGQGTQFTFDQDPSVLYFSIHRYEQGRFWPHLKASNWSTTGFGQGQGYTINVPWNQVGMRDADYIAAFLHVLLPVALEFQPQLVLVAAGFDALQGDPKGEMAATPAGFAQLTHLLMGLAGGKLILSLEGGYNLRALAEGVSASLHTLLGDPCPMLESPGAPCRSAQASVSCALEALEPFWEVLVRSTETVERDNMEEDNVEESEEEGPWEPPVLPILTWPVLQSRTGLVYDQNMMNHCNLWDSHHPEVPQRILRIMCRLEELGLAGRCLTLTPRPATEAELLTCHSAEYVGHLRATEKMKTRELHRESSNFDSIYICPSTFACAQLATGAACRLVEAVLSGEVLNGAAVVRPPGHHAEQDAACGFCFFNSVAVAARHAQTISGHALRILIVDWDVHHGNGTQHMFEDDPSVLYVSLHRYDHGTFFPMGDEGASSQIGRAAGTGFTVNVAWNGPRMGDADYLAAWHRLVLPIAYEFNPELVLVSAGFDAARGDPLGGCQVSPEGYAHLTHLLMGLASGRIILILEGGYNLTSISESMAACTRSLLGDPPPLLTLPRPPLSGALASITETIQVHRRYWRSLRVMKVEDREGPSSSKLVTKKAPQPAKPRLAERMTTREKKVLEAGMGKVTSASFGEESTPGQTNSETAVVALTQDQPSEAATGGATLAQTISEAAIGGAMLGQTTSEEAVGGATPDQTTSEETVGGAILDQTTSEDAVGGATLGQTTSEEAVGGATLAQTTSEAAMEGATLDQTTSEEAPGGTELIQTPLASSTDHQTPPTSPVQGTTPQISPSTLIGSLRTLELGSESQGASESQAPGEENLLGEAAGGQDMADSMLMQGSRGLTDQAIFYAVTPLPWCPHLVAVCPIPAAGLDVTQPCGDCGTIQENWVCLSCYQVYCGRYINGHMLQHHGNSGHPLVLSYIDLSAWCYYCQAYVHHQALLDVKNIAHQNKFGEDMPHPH
Method in brief: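 Fluorescence (Ex 390, Em 460) read after a 37° C, 60 min enzyme reaction and a further 30 min developer step at 37° C. Uses recombinant human HDAC6; HDAC1 arm dosed at 100, 1000, 10000 nM.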

[1] = samples at 100, 1000 and 10000 nM, 37° C. 60 minutes, fluorescence Ex 390, Em 460, read-out: HDAC1 IC50
[2] = samples at 0.1, 1, 10, 100 and 1000 nM, 37° C. 60 minutes, fluorescence Ex 390, Em 460, read-out: HDAC6 IC50

T1 sequence (Q13547 whole entry): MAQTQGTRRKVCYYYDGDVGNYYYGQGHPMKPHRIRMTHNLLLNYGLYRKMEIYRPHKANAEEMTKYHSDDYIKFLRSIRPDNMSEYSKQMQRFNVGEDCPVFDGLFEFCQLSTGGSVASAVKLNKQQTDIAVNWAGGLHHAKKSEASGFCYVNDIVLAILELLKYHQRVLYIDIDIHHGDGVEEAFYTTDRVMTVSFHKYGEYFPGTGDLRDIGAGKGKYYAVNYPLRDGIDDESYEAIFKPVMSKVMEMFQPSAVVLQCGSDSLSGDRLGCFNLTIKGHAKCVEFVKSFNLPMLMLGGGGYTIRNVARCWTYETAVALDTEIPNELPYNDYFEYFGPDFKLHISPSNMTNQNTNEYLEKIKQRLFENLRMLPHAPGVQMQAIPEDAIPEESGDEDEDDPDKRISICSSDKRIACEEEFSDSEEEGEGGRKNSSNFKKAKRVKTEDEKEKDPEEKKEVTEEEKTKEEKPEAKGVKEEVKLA

| SMILES | IC50 (HDAC1; [1]) [nM] | IC50 (HDAC6 human recombinant; [2]) [nM] | IC50 (HDAC1) [nM] | IC50 (HDAC6 human recombinant) [nM] |
| --- | --- | --- | --- | --- |
| O=c1n(Cc2ccc(-c3nnc(C(F)F)o3)cn2)c2cc(Cl)ccc2n1C1CCN(CC(F)(F)C(F)(F)C(F)(F)F)CC1 [Compound 232, 5-chloro-3-((5-(5-(difluoromethyl)-1,3,4-oxadiazole-2-yl)pyridine-2-yl)methyl)-1-(1-(2,2,3,3,4,4,4-heptafluorobutyl)piperidine-4-yl)-1,3-dihydro-2H-benzo[d]imidazole-2-one] | – | – | > 10000 | 643 |
| CCC(F)(F)CN1CCC(n2c(=O)n(Cc3ccc(-c4nnc(C(F)F)o4)cn3)c3cc(Cl)ccc32)CC1 [Compound 233, 5-chloro-1-(1-(2,2-difluorobutyl)piperidine-4-yl)-3-((5-(5-(difluoromethyl)-1,3,4-oxadiazole-2-yl)pyridine-2-yl)methyl)-1,3-dihydro-2H-benzo[d]imidazole-2-one] | > 10000 | 107 | – | – |
| CC(F)(F)CN1CCC(n2c(=O)n(Cc3ccc(-c4nnc(C(F)F)o4)cn3)c3cc(Cl)ccc32)CC1 [Compound 234, 5-chloro-3-((5-(5-(difluoromethyl)-1,3,4-oxadiazole-2-yl)pyridine-2-yl)methyl)-1-(1-(2,2-difluoropropyl)piperidine-4-yl)-1,3-dihydro-2H-benzo[d]imidazole-2-one] | > 10000 | 54 | – | – |
| O=c1n(Cc2ccc(-c3nnc(C(F)F)o3)cn2)c2cc(Cl)ccc2n1C1CCN(CC(F)(F)C(F)F)CC1 [Compound 235, 5-chloro-3-((5-(5-(difluoromethyl)-1,3,4-oxadiazole-2-yl)pyridine-2-yl)methyl)-1-(1-(2,2,3,3-tetrafluoropropyl)piperidine-4-yl)-1,3-dihydro-2H-benzo[d]imidazole-2-one] | > 10000 | 103 | – | – |
| O=c1n(Cc2ccc(-c3nnc(C(F)F)o3)cn2)c2cc(Cl)ccc2n1C1CCN(CC(F)(F)F)CC1 [Compound 236, 5-chloro-3-((5-(5-(difluoromethyl)-1,3,4-oxadiazole-2-yl)pyridine-2-yl)methyl)-1-(1-(2,2,2-trifluoroethyl)piperidine-4-yl)-1,3-dihydro-2H-benzo[d]imidazole-2-one] | > 10000 | 68 | – | – |
| CC(C)(C)OC(=O)n1ccc2cc(-c3ccc4c(c3)sc(=O)n4Cc3ccc(-c4nnc(C(F)F)o4)cn3)ccc21 [Compound 237, tert-butyl 5-(3-((5-(5-(difluoromethyl)-1,3,4-oxadiazole-2-yl)pyridine-2-yl)methyl)-2-oxo-2,3-dihydrobenzo[d]thiazole-6-yl)-1H-indole-1-carboxylate] | > 10000 | 1140 | – | – |
| CC(C)(C)OC(=O)N1CC=C(c2ccc3c(c2)sc(=O)n3Cc2ccc(-c3nnc(C(F)F)o3)cn2)CC1 [Compound 238, tert-butyl 4-(3-((5-(5-(difluoromethyl)-1,3,4-oxadiazole-2-yl)pyridine-2-yl)methyl)-2-oxo-2,3-dihydrobenzo[d]thiazole-6-yl)-3,6-dihydropyridine-1(2H)-carboxylate] | > 10000 | 203 | – | – |
| O=c1n(Cc2ccc(-c3nnc(C(F)F)o3)cn2)c2cc(F)c(-c3cccc4[nH]ccc34)cc2n1C1CCN(CC(F)(F)F)CC1 [Compound 239, 1-((5-(5-(difluoromethyl)-1,3,4-oxadiazole-2-yl)pyridine-2-yl)methyl)-6-fluoro-5-(1H-indole-4-yl)-3-(1-(2,2,2-trifluoroethyl)piperidine-4-yl)-1,3-dihydro-2H-benzo[d]imidazole-2-one] | > 10000 | 51 | – | – |

Continued, in another order:

| IC50 (HDAC1; [1]) [nM] | IC50 (HDAC6 human recombinant; [2]) [nM] | SMILES | IC50 (HDAC1) [nM] | IC50 (HDAC6 human recombinant) [nM] |
| --- | --- | --- | --- | --- |
| > 10000 | 27 | O=c1n(Cc2ccc(-c3nnc(C(F)F)o3)cn2)c2cc(F)c(-c3cccnc3)cc2n1C1CCN(CC(F)(F)F)CC1 [Compound 240, 1-((5-(5-(difluoromethyl)-1,3,4-oxadiazole-2-yl)pyridine-2-yl)methyl)-6-fluoro-5-(pyridine-3-yl)-3-(1-(2,2,2-trifluoroethyl)piperidine-4-yl)-1,3-dihydro-2H-benzo[d]imidazole-2-one] | – | – |
| > 10000 | 94 | O=c1n(Cc2ccc(-c3nnc(C(F)F)o3)cn2)c2cc(F)c(-c3cccc4[nH]ccc34)cc2n1C1CCN(CC(F)(F)C(F)F)CC1 [Compound 241, 1-((5-(5-(difluoromethyl)-1,3,4-oxadiazole-2-yl)pyridine-2-yl)methyl)-6-fluoro-5-(1H-indole-4-yl)-3-(1-(2,2,3,3-tetrafluoropropyl)piperidine-4-yl)-1,3-dihydro-2H-benzo[d]imidazole-2-one] | – | – |
| > 10000 | 46 | O=c1n(Cc2ccc(-c3nnc(C(F)F)o3)cn2)c2cc(F)c(-c3cccnc3)cc2n1C1CCN(CC(F)(F)C(F)F)CC1 [Compound 242, 1-((5-(5-(difluoromethyl)-1,3,4-oxadiazole-2-yl)pyridine-2-yl)methyl)-6-fluoro-5-(pyridine-3-yl)-3-(1-(2,2,3,3-tetrafluoropropyl)piperidine-4-yl)-1,3-dihydro-2H-benzo[d]imidazole-2-one] | – | – |
| > 10000 | 17 | O=C(CO)N1CCC(n2c(=O)n(Cc3ccc(-c4nnc(C(F)F)o4)cn3)c3cc(Cl)ccc32)CC1 [Compound 243, 5-chloro-3-((5-(5-(difluoromethyl)-1,3,4-oxadiazole-2-yl)pyridine-2-yl)methyl)-1-(1-(2-hydroxyacetyl)piperidine-4-yl)-1,3-dihydro-2H-benzo[d]imidazole-2-one] | – | – |
| > 10000 | 74 | COC(=O)c1cc2ccc(-c3ccc4c(c3)n(C)c(=O)n4Cc3ccc(-c4nnc(C(F)F)o4)cn3)cc2[nH]1 [Compound 244, methyl 6-(1-((5-(5-(difluoromethyl)-1,3,4-oxadiazole-2-yl)pyridine-2-yl)methyl)-3-methyl-2-oxo-2,3-dihydro-1H-benzo[d]imidazole-5-yl)-1H-indole-2-carboxylate] | – | – |
| > 10000 | 684 | O=c1oc2ccccc2n1Cc1ccc(-c2nnc(C(F)F)o2)cc1F [Compound 245, 3-(4-(5-(difluoromethyl)-1,3,4-oxadiazole-2-yl)-2-fluorobenzyl)benzo[d]oxazole-2(3H)-one] | – | – |
| > 10000 | 23 | O=c1oc2ccccc2n1Cc1ccc(-c2nnc(C(F)F)o2)cn1 [Compound 246, 3-((5-(5-(difluoromethyl)-1,3,4-oxadiazole-2-yl)pyridine-2-yl)methyl)benzo[d]oxazole-2(3H)-one] | – | – |
| > 10000 | 9 | Cn1c(=O)n(Cc2ccc(-c3nnc(C(F)F)o3)cn2)c2ccc(-c3cn[nH]c3)cc21 [Compound 247, 1-((5-(5-(difluoromethyl)-1,3,4-oxadiazole-2-yl)pyridine-2-yl)methyl)-3-methyl-5-(1H-pyrazole-4-yl)-1,3-dihydro-2H-benzo[d]imidazole-2-one] | – | – |
| > 10000 | 6 | CN1CCC(n2c(=O)n(Cc3ccc(-c4nnc(C(F)F)o4)cn3)c3cc(F)c(-c4cn[nH]c4)cc32)CC1 [Compound 248, 1-((5-(5-(difluoromethyl)-1,3,4-oxadiazole-2-yl)pyridine-2-yl)methyl)-6-fluoro-3-(1-methylpiperidine-4-yl)-5-(1H-pyrazole-4-yl)-1,3-dihydro-2H-benzo[d]imidazole-2-one] | – | – |
